One data set in a line: solubility of ganaxolone. It is filed as physicochemical. Here is the method:
Ganaxolone is insoluble in water. […] Ganaxolone has a relatively long half-life - approximately 20 hours in human plasma following oral administration (Nohria, V. and Giller, E., Neurotherapeutics, (2007) 4(1): 102-105). Furthermore, ganaxolone has a short Tmax, which means that therapeutic blood levels are reached quickly.
Ganaxolone formulations suitable for parenteral administration in the methods of the present invention may comprise physiologically acceptable sterile aqueous or non-aqueous solutions, dispersions, suspensions or emulsions, and sterile powders for reconstitution into sterile injectable solutions or dispersions. Examples of suitable aqueous and non-aqueous carriers, diluents, solvents, or vehicles including water, ethanol, polyols (propylene glycol, polyethylene-glycol, glycerol, cremophor and the like), suitable mixtures thereof, vegetable oils (such as olive oil) and injectable organic esters such as ethyl oleate. Additionally, ganaxolone can be dissolved at concentrations of >1 mg/ml using water soluble beta cyclodextrins (e.g. beta-sulfobutyl-cyclodextrin and 2-hydroxypropylbetacyclodextrin). A particularly suitable cyclodextrin is a substituted-β-cyclodextrin is Captisol®. […]

In a further data set the target is T1, progesterone receptor (Homo sapiens, UniProt P06401).
T1 sequence (P06401 1-933): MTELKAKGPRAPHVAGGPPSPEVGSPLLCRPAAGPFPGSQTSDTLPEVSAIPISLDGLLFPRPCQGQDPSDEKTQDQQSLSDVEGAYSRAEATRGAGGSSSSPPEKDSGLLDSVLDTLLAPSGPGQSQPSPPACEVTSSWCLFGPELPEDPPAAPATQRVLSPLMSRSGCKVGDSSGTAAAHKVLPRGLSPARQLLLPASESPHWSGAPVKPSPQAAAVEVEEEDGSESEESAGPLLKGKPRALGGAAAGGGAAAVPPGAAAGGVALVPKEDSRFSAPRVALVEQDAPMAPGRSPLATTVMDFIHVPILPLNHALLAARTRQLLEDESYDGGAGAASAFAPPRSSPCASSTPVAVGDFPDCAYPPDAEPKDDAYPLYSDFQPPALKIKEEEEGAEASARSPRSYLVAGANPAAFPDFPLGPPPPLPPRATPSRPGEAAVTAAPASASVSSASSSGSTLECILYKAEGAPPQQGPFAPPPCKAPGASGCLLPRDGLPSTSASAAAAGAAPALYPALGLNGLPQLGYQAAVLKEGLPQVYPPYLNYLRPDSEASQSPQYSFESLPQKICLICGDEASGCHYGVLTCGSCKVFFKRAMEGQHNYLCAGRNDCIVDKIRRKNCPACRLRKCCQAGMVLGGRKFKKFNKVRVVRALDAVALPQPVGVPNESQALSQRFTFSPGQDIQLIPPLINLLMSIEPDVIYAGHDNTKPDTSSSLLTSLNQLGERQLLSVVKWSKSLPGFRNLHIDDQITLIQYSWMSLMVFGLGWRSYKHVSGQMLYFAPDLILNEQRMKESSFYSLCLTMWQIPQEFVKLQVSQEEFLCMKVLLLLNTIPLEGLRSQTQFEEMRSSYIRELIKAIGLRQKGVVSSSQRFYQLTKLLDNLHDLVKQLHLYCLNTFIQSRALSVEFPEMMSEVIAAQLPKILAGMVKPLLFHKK
In words: activation of the progesterone receptor (hormonal activity). To be noted: directly or via metabolic conversion. The source says: Ganaxolone (3α-hydroxy-3β-methyl-5α-pregnan-20-one) is a 3β-methylated synthetic analogue of the endogenous neurosteroid allopregnanolone with similar biological activity (Carter et al., (1997), The Journal of Pharmacology and Experimental Therapeutics, 280:1284-1295), but it is designed to not activate nuclear (classical) progesterone receptors.

For `CC(=O)[C@H]1CC[C@H]2[C@@H]3CC[C@H]4C[C@](C)(O)CC[C@]4(C)[C@H]3CC[C@]12C` [ganaxolone, 3α-hydroxy-3β-methyl-5α-pregnan-20-one], the solubility in the data set “solubility of ganaxolone” (aqueous with cosolvent or surfactant or cyclodextrin, beta-sulfobutyl-cyclodextrin, 2-hydroxypropylbetacyclodextrin, read-out: concentration dissolved using water soluble beta cyclodextrins) is more than 1000 µg/mL. In addition, in “solubility of ganaxolone” (water), the solubility in water result is reported as “insoluble”. Besides, the “activation of the progesterone receptor” value at progesterone receptor is reported as “does not activate the progesterone receptor directly or indirectly”.

The values above are taken from US20230364109A1, “GANAXOLONE FOR USE IN TREATMENT OF SUPER REFRACTORY STATUS EPILEPTICUS” (MARINUS PHARMACEUTICALS, INC., priority 2020, published 2023).
